Measured values from ChEMBL document CHEMBL3885881, “DrugMatrix”.

Organism: Rattus norvegicus
Assay: DrugMatrix - Regimen: Daily Repeat
Format: toxicity, organism-based, Sprague-Dawley
Set-up: regimen Daily Repeat, gender Male, age 6-8 weeks
Settings: in vivo, po, route oral GAVAGE, vehicle .5 % CMC; for ABSOLUTE BASOPHIL / ABSOLUTE EOSINOPHIL / ABSOLUTE LYMPHOCYTE / ABSOLUTE MONOCYTE / ABSOLUTE SEGMENTED NEUTROPHIL / BASOPHIL / EOSINOPHIL / ERYTHROCYTE COUNT / HEMATOCRIT / HEMOGLOBIN / LEUKOCYTE COUNT / LYMPHOCYTE / MEAN CORPUSCULAR HEMOGLOBIN / MEAN CORPUSCULAR HEMOGLOBIN CONCENTRATION / MEAN CORPUSCULAR VOLUME / MONOCYTE / NEUTROPHIL / NUCLEATED RED BLOOD CELLS / PLATELET COUNT: tissue Blood; for ALANINE AMINOTRANSFERASE / ALBUMIN / ALKALINE PHOSPHATASE / ASPARTATE AMINOTRANSFERASE / BLOOD UREA NITROGEN / CARBON DIOXIDE / CHLORIDE / CHOLESTEROL / CREATINE PHOSPHOKINASE / CREATININE / GLUCOSE / LACTATE DEHYDROGENASE / LIPASE / PHOSPHORUS / POTASSIUM / SODIUM / TOTAL BILIRUBIN / TOTAL PROTEIN / URIC ACID: tissue Plasma
[1] = 55 mg/kg, 120 h, dose level Low, time 5 day
[2] = 1000 mg/kg, 72 h, dose level High, time 3 day
[3] = 1000 mg/kg, 120 h, dose level High, time 5 day

CCN1CCCC1CNC(=O)c1cc(S(N)(=O)=O)ccc1OC (centres undefined) [SULPIRIDE]
ABSOLUTE BASOPHIL [1]: 0 CELLS/uL
ABSOLUTE EOSINOPHIL [1]: 0 CELLS/uL
ABSOLUTE LYMPHOCYTE [1]: 14792 CELLS/uL
ABSOLUTE MONOCYTE [1]: 54.33 CELLS/uL
ABSOLUTE SEGMENTED NEUTROPHIL [1]: 2187 CELLS/uL
BASOPHIL [1]: 0%
EOSINOPHIL [1]: 0%
ERYTHROCYTE COUNT [1]: 5.47 x10E6/uL
HEMATOCRIT [1]: 34.67%
HEMOGLOBIN [1]: 13.83 G/DL
LEUKOCYTE COUNT [1]: 17.03 x10E3/uL
LYMPHOCYTE [1]: 86%
MEAN CORPUSCULAR HEMOGLOBIN [1]: 25.3 pg
MEAN CORPUSCULAR HEMOGLOBIN CONCENTRATION [1]: 39.93 G/DL
MEAN CORPUSCULAR VOLUME [1]: 63.4 fL
MONOCYTE [1]: 0.33%
NEUTROPHIL [1]: 13.67%
NUCLEATED RED BLOOD CELLS [1]: 0 /100WBC
PLATELET COUNT [1]: 1253.33 x10E3/uL
ALANINE AMINOTRANSFERASE [1]: 50.67 u/L
ALBUMIN [1]: 4.43 G/DL
ALKALINE PHOSPHATASE [1]: 322.67 u/L
ASPARTATE AMINOTRANSFERASE [1]: 90 u/L
BLOOD UREA NITROGEN [1]: 16 mg/dL
CARBON DIOXIDE [1]: 28 mmol/L
CHLORIDE [1]: 102 MEQ/L
CHOLESTEROL [1]: 86.33 mg/dL
CREATINE PHOSPHOKINASE [1]: 434.67 u/L
CREATININE [1]: 0.2 mg/dL
GLUCOSE [1]: 160.33 mg/dL
LACTATE DEHYDROGENASE [1]: 149 u/L
LIPASE [1]: 9 u/L
PHOSPHORUS [1]: 13 mg/dL
POTASSIUM [1]: 6.98 MEQ/L
SODIUM [1]: 147.83 MEQ/L
TOTAL BILIRUBIN [1]: 0.2 mg/dL
TOTAL PROTEIN [1]: 6.2 G/DL
URIC ACID [1]: 1.9 mg/dL
ABSOLUTE BASOPHIL [2]: 0 CELLS/uL
ABSOLUTE EOSINOPHIL [2]: 50.67 CELLS/uL
ABSOLUTE LYMPHOCYTE [2]: 15013.67 CELLS/uL
ABSOLUTE MONOCYTE [2]: 0 CELLS/uL
ABSOLUTE SEGMENTED NEUTROPHIL [2]: 1202.33 CELLS/uL
BASOPHIL [2]: 0%
EOSINOPHIL [2]: 0.33%
ERYTHROCYTE COUNT [2]: 5.92 x10E6/uL
HEMATOCRIT [2]: 38.13%
HEMOGLOBIN [2]: 15.07 G/DL
LEUKOCYTE COUNT [2]: 16.27 x10E3/uL
LYMPHOCYTE [2]: 92%
MEAN CORPUSCULAR HEMOGLOBIN [2]: 25.5 pg
MEAN CORPUSCULAR HEMOGLOBIN CONCENTRATION [2]: 39.53 G/DL
MEAN CORPUSCULAR VOLUME [2]: 64.5 fL
MONOCYTE [2]: 0%
NEUTROPHIL [2]: 7.67%
NUCLEATED RED BLOOD CELLS [2]: 0 /100WBC
PLATELET COUNT [2]: 1327 x10E3/uL
ALANINE AMINOTRANSFERASE [2]: 52.33 u/L
ALBUMIN [2]: 4.53 G/DL
ALKALINE PHOSPHATASE [2]: 415 u/L
ASPARTATE AMINOTRANSFERASE [2]: 78.33 u/L
BLOOD UREA NITROGEN [2]: 16.67 mg/dL
CARBON DIOXIDE [2]: 29.33 mmol/L
CHLORIDE [2]: 102.67 MEQ/L
CHOLESTEROL [2]: 85 mg/dL
CREATINE PHOSPHOKINASE [2]: 227.33 u/L
CREATININE [2]: 0.21 mg/dL
GLUCOSE [2]: 146 mg/dL
LACTATE DEHYDROGENASE [2]: 310 u/L
LIPASE [2]: 9.33 u/L
PHOSPHORUS [2]: 14.17 mg/dL
POTASSIUM [2]: 7.01 MEQ/L
SODIUM [2]: 147.37 MEQ/L
TOTAL BILIRUBIN [2]: 0.2 mg/dL
TOTAL PROTEIN [2]: 6.33 G/DL
URIC ACID [2]: 1.47 mg/dL
ABSOLUTE BASOPHIL [3]: 0 CELLS/uL
ABSOLUTE EOSINOPHIL [3]: 69.67 CELLS/uL
ABSOLUTE LYMPHOCYTE [3]: 10948.67 CELLS/uL
ABSOLUTE MONOCYTE [3]: 52.33 CELLS/uL
ABSOLUTE SEGMENTED NEUTROPHIL [3]: 1129.33 CELLS/uL
BASOPHIL [3]: 0%
EOSINOPHIL [3]: 0.67%
ERYTHROCYTE COUNT [3]: 5.48 x10E6/uL
HEMATOCRIT [3]: 36.03%
HEMOGLOBIN [3]: 14.33 G/DL
LEUKOCYTE COUNT [3]: 12.2 x10E3/uL
LYMPHOCYTE [3]: 89.67%
MEAN CORPUSCULAR HEMOGLOBIN [3]: 26.17 pg
MEAN CORPUSCULAR HEMOGLOBIN CONCENTRATION [3]: 39.77 G/DL
MEAN CORPUSCULAR VOLUME [3]: 65.8 fL
MONOCYTE [3]: 0.33%
NEUTROPHIL [3]: 9.33%
NUCLEATED RED BLOOD CELLS [3]: 0.33 /100WBC
PLATELET COUNT [3]: 1145.33 x10E3/uL
ALANINE AMINOTRANSFERASE [3]: 56.33 u/L
ALBUMIN [3]: 4.6 G/DL
ALKALINE PHOSPHATASE [3]: 436.67 u/L
ASPARTATE AMINOTRANSFERASE [3]: 86 u/L
BLOOD UREA NITROGEN [3]: 17.67 mg/dL
CARBON DIOXIDE [3]: 26.33 mmol/L
CHLORIDE [3]: 99.33 MEQ/L
CHOLESTEROL [3]: 77 mg/dL
CREATINE PHOSPHOKINASE [3]: 198 u/L
CREATININE [3]: 0.18 mg/dL
GLUCOSE [3]: 150.67 mg/dL
LACTATE DEHYDROGENASE [3]: 162 u/L
LIPASE [3]: 13.33 u/L
PHOSPHORUS [3]: 14.83 mg/dL
POTASSIUM [3]: 7.2 MEQ/L
SODIUM [3]: 147.4 MEQ/L
TOTAL BILIRUBIN [3]: 0.2 mg/dL
TOTAL PROTEIN [3]: 6.37 G/DL
URIC ACID [3]: 1.9 mg/dL
